Measured values from ChEMBL document CHEMBL1147125, “Microbial transformation of (-)-guaiol and antibacterial activity of its transformed products” (2007).

Experiments:
Escherichia coli = assay: Antibacterial activity against Escherichia coli at 100 ug/100 uL after 24 hrs; assay type: functional
Bacillus subtilis = assay: Antibacterial activity against Bacillus subtils at 100 ug/100 uL after 24 hrs; assay type: functional
Shigella flexneri = assay: Antibacterial activity against Shigella flexneri at 100 ug/100 uL after 24 hrs; assay type: functional
Staphylococcus aureus = assay: Antibacterial activity against Staphylococcus aureus at 100 ug/100 uL after 24 hrs; assay type: functional
Pseudomonas aeruginosa = assay: Antibacterial activity against Pseudomonas aeruginosa at 100 ug/100 uL after 24 hrs; assay type: functional
Salmonella typhi = assay: Antibacterial activity against Salmonella typhi at 100 ug/100 uL after 24 hrs; assay type: functional, Salmonella enterica subsp. enterica serovar Typhi

Compound	inhibition zone (IZ) (Escherichia coli) [mm]	inhibition zone (IZ) (Bacillus subtilis) [mm]	inhibition zone (IZ) (Shigella flexneri) [mm]	inhibition zone (IZ) (Staphylococcus aureus) [mm]	inhibition zone (IZ) (Pseudomonas aeruginosa) [mm]	inhibition zone (IZ) (Salmonella typhi) [mm]
C[C@@H](O)[C@H]1C(=O)N2C(C(=O)O)=C(SCCNC=N)C[C@H]12 [IMIPENEM ANHYDROUS]	30	33	27	33	24	25
C[C@@H]1[C@@H]2C[C@H](C(C)(C)O)CC[C@H](C)C2=C[C@@H]1O					20	15
C[C@@H]1C2=CC[C@H](C)[C@@H]2C[C@H](C(C)(C)O)C[C@@H]1O					20	16
C[C@H]1CC[C@@H](C(C)(C)O)C(=O)C2=C1CC[C@@H]2C		11	10		13	
C[C@H]1CC[C@@H](C(C)(C)O)C[C@@H]2C1=CC(=O)[C@@H]2C		11			13	
C[C@@H]1C2=C(C[C@H](C(C)(C)O)C[C@H]1O)[C@@H](C)[C@@H](O)C2				20	17	15
C[C@H]1CC[C@@H](C(C)(C)O)CC2=C1CC[C@@H]2C [GUAIOL]	16	15	17		17	24
